From patent publication US20080044390A1, “Methods and compositions for the treatment of neurodegenerative disorders” (priority 2006, published 2008)
Where two headings read alike, the source gives them in different places.

System: PC12/HttN90Q103 cells
Test: ATPlite assay, rescue of HttN90Q103-induced cell death
Type: cell-based, rat
Excerpt: In this stable PC12 line (PC12/HttN90Q103), transcription of the Htt transgene is driven by an ecdysone-regulated promoter such that the expression of HttN90Q103 can be turned on or off by the addition or removal of the non-steroidal ecdysone analog tebufenozide (teb).
Using the engineered PC12/HttN90Q103 cell line together with Perkin Elmer's ATPlite™ assay kit or CellTiter-Blue™ assay, a high throughput assay to screen small molecules for their ability to prevent mutant Htt exon 1-induced cell death was developed and optimized.
The following formulas were used to calculate mutant Htt-induced cytotoxicity and test compound rescue: % killing=[(un-induced−induced-DMSO treated)/un-induced]×100 % rescue=[(drug treated−induced-DMSO treated)/(un-induced−induced-DMSO treated)]×100
For single-agent ranking, the assay was performed in 384-well plates to obtain duplicate dose response curves in 12-step dilutions with a dosing ratio f=2 over 3 orders of magnitude. […]
Day 1—Add Compounds 4 hours post-induction • 1) Remove compound plates from dessicator. • 2) Using the PlateMate, prepare dilution plate with 100 μL per well of the complete cell medium at room temperature in clear untreated 384-well plates. • 3) Using the MiniTrak, make compound dilution plates: 1 μL from each well of stock plates into 100 μL of media in the dilution plate for a 1:100 dilution (10× stock in media). • 4) Using the MiniTrak, add 4.5 μL of the diluted stock to each well of cells in assay plates. • 5) Make positive control solution: dilute 20 mM stock of BOC-D-FMK in media for a 10× stock. • 6) Manually add 4.5 μL positive control to C1-N1. • 7) Incubate plates at 37° C. for three days. • (for ranking combinations, steps 5 and 6 are omitted as there is positive control on the compound plates)
Day 4—Perform ATPlite™ Assay • 1) Take plates out of the incubator. • 2) Using the PlateMate, add 40 μL of ATPlite™ 1-step solution (Perkin Elmer) to each well of the assay plates. • 3) Wait ten minutes to allow plates to dark-adapt. • 4) Read luminescence intensity in Wallac plate reader using […]

[1] = ATPlite, single agent, 250 nM tebufenozide induction
[2] = ATPlite, single agent, sigmoidal fit of 12-step dose response, read-out: EC50
[3] = Rattus norvegicus, PC-12, read-out: Max Effect (% rescue)
[4] = Rattus norvegicus, PC-12, ATPlite, single agent, 250 nM tebufenozide induction, read-out: Max Effect (% rescue)
[5] = Rattus norvegicus, PC-12, ATPlite, single agent, sigmoidal fit of 12-step dose response, read-out: EC50

Compound | Emax [4] [%] | EC50 [5] [µM] | further results
O=C1Nc2ccc3ncsc3c2/C1=C/c1cnc[nH]1 [PKR inhibitor] | – | – | Max Effect (% rescue) [1]: 124%; EC50 [2]: 1.2 µM
CC[C@@H](C(=O)[C@@H](C)[C@@H](O)[C@H](C)[C@@H]1O[C@@H]([C@@H](CC)C(=O)O)CC[C@@H]1C)[C@H]1O[C@]2(C=C[C@@H](O)[C@]3(CC[C@@](C)([C@H]4CC[C@](O)(CC)[C@H](C)O4)O3)O2)[C@H](C)C[C@@H]1C [Salinomycin] | – | – | EC50 (Rattus norvegicus, PC-12): 0.2 µM; Emax [3]: 24%
CC(=O)C(=O)O [Pyruvate] | 5 | 1.2 | –
CCN(CC)CCCC(C)Nc1ccnc2cc(Cl)ccc12 (stereo not shown) [Chloroquine] | – | – | EC50 (Rattus norvegicus, PC-12): 9.7 µM
C[C@]12CCC(=O)C[C@@H]1CC[C@@H]1[C@@H]2CC[C@]2(C)[C@@H](O)CC[C@@H]12 [Androstanolone] | – | – | EC50 (Rattus norvegicus, PC-12): 8 µM; Emax [3]: 15%
NC1CCN(c2nc3c(cc2F)c(=O)c(C(=O)O)cn3-c2ccc(F)cc2F)C1 (stereo not shown) [Tosufloxacin] | 20 | 9.9 | –
CCN(CC)Cc1cc(Nc2ccnc3cc(Cl)ccc23)ccc1O [Amodiaquine] | 62 | 12.3 | –
C=C[C@@]1(C)CC(=O)[C@]2(O)[C@@]3(C)[C@@H](O)CCC(C)(C)[C@@H]3[C@H](O)[C@H](OC(C)=O)[C@@]2(C)O1 [Forskolin] | 18 | 0.2 | –
CC1=C(O)C(=O)C=C2C1=CC=C1[C@@]2(C)CC[C@@]2(C)[C@@H]3C[C@](C)(C(=O)O)CC[C@]3(C)CC[C@]12C [Celastrol] | – | – | EC50 (Rattus norvegicus, PC-12): 0.3 µM; Emax [3]: 19%
CCCCC1C(=O)NN(c2ccccc2)C1=O (stereo not shown) [Mofebutazone] | 19 | 5.6 | –
O=C1Nc2ccccc2/C1=C1/Nc2ccccc2/C1=N\O [Indirubin-3′-monooxime] | – | – | Max Effect (% rescue) [1]: 30%; EC50 [2]: 2.4 µM
CC(=O)S[C@@H]1CC2=CC(=O)CC[C@]2(C)[C@H]2CC[C@@]3(C)[C@@H](CC[C@@]34CCC(=O)O4)[C@H]12 [Spironolactone] | 22 | 9.1 | –
O=C(Nc1cccc(C2=NCCN2)c1)Nc1cccc(C2=NCCN2)c1 [Imidocarb] | 24 | 15.9 | –
Nc1ncnc2c1c(I)cn2[C@@H]1C[C@H](N)[C@@H](O)[C@H]1O [Agent A-134974, N^7-[(1′R,2′S,3′R,4′S)-2′,3′-dihydroxy-4′-aminocyclopentyl]-4-amino-5-iodopyrrolopyrimidine] | – | – | Max Effect (% rescue) [1]: 22%; EC50 [2]: 13.3 µM
O=S(=O)(c1cccc2cnccc12)N1CCCNCC1 [Fasudil] | 26 | 9.9 | –
CC(=O)ON=C1C(=O)N(Cc2cc(Cl)ccc2Cl)c2ccc(Cl)cc21 [UCH-L1 inhibitor] | – | – | Max Effect (% rescue) [1]: 21%; EC50 [2]: 0.5 µM
O=C(/C=C/c1ccc(O)cc1)c1ccc(O)cc1O [Isoliquiritigenin] | 27 | 12.5 | –
Cc1ncc(CSSCc2cnc(C)c(O)c2CO)c(CO)c1O [Pyritinol] | 17 | 15.1 | –
O=c1c(O)c(-c2ccc(O)c(O)c2)oc2cc(O)ccc12 [Fisetin] | 52 | 12.4 | –
N#C/C(=C\c1ccc(O)c(O)c1)C(N)=O [Tyrphostin 46] | – | – | Max Effect (% rescue) [1]: 23%; EC50 [2]: 23.5 µM
N=C(N)c1ccc(/N=N/Nc2ccc(C(=N)N)cc2)cc1 [Diminazene] | 35 | 5.6 | –
CN(CCOc1ccc(CC2SC(=O)NC2=O)cc1)c1ccccn1 (stereo not shown) [Rosiglitazone] | 13 | 8.5 | –
c1ccc(CN(CCN(Cc2ccccn2)Cc2ccccn2)Cc2ccccn2)nc1 [TPEN, N,N,N′,N′-tetrakis(2-pyridylmethyl)-ethylenediamine] | 15 | 3 | –
COc1ccc2c(c1)/C(=C/c1cnc[nH]1)C(=O)N2 [SU9516, 3-[1-(3H-imidazol-4-yl)-meth-(Z)-ylidene]-5-methoxy-1,3-dihydro-indol-2-one] | 66 | 3.3 | –
CC(C=NNC(=N)N)=NNC(=N)N [Methylglyoxal bis(guanylhydrazone)] | 79 | 7.7 | –
